System: subjects with moderately to severely active RA who have an inadequate response to methotrexate (MTX)
Test: Study 1 (add-on to MTX) - DAS28(CRP) scores
Assay type: in vivo, human
Set-up: key to DAS28(CRP) mean CFB (LOCF): change from baseline in DAS28(CRP) score (joints, CRP, 0-100 VAS)
Method: Double-blind, placebo-controlled add on study in subjects with moderately to severely active RA who have an inadequate response to methotrexate (MTX) (oral or parenteral).
595 subjects randomized to one of 6 dose regimens of Compound 1 (dosed as [Compound 1:HCl:3H2O]) (3 dose levels administered either once or twice daily) or placebo on top of each subject's stable dose of MTX.
Compound 1 (dosed as [Compound 1:HCl:3H2O]) is dosed for twelve weeks once daily (q.d.) (50 mg, 100 mg or 200 mg) or twice daily (b.i.d.) (25 mg, 50 mg or 100 mg); or placebo.
At Week 12, the subjects on placebo who have not achieved 20% improvement in swollen joint count (SJC66) and tender joint count (TJC68) are re-randomized automatically to receive Compound 1 (dosed as a [Compound 1:HCl:3H2O]) either at 100 mg q.d. or 50 mg b.i.d. doses in a blinded fashion; subjects on 50 mg q.d. who have not achieved 20% improvement in SJC66 and TJC68 will be assigned to 100 mg q.d. and subjects on 25 mg b.i.d. that have not achieved a 20% improvement in SJC66 and TJC68 will be assigned to 50 mg b.i.d. Subjects who switch treatment at week 12 are handled as if they discontinued at week 12 for the purpose of statistical analysis, whereas subjects in the other groups will maintain their randomized treatment until Week 24.
The (DAS28(CRP)) is a system developed and validated by the European League Against Rheumatism (EULAR) to measure the progress and improvement of rheumatoid arthritis and has been extensively validated (Wells et al., 2008). The DAS28(CRP) scoring includes a 28 tender and swollen joint count, CRP measurement from blood analysis, and a general health assessment on a visual analog scale (Fransen et al., 2003).
DAS28(CRP) values range from 2.0 to 10.0, and more particularly reflect the following status: • Remission: DAS28(CRP) ≤2.6 • Low Disease activity: 2.6 <DAS28(CRP) ≤3.2 • Moderate Disease Activity: 3.2 <DAS28(CRP) ≤5.1 • High Disease Activity: DAS28(CRP) >5.1
In practice, the DAS28(CRP) measurement involves the evaluation 28 different joints including in the measurement (proximal interphalangeal joints (10 joints), metacarpophalangeal joints (10), wrists (2), elbows (2), shoulders (2), and knees (2)). When looking at these joints, both the number of joints with tenderness upon touching and swelling are counted.
Secondly, C-reactive protein level is measured.
Finally, the patient makes a subjective assessment of disease activity during the preceding 7 days on a scale between 0 and 100, where 0 is “no activity” and 100 is “highest activity possible”.
The DAS28(CRP) score is then calculated as follows:
Firstly, the patient is asked to make a vertical mark on a 100 mm Visual Analog Scale (VAS) corresponding to their general health or global disease activity on a touch screen to measure the VAS value, which is used in the formula below.
Secondly, a swollen and tender joint examination is then performed on the patient. The swollen and tender joints are recorded. From this examination are obtained the total amount of swollen joints (SJC) and the total amount of tender joints (TJC), which are used in the formula below.
Thirdly, C-reactive protein (CRP) levels are measured.
Finally, the values obtained above (VAS, TJC28, SJC28, and CRP) are computed into the following Formula to obtain the DAS28(CRP) score.
DAS28(CRP)=0.56*√{square root over (TJC28)}+0.28√{square root over (SJC28)}+[…] ln(CRP+1)+0.014*VAS
The improvement (decreases) in the DAS28(CRP) scores for each patient group at weeks 1, 2, 4, 8 and 12 is shown in Table LXXXVII and Table LXXXVIII below, together with the Hommel-corrected p-value for the pairwise comparisons of each group with placebo.
The number of subjects (N) provided in each groups corresponds to the number of subjects starting the study in each group, and the DAS28 (CRP) data reported below corresponds to the responding subjects continuing for the entire 24 weeks on their initial treatment course.

## O=C(Nc1nc2cccc(-c3ccc(CN4CCS(=O)(=O)CC4)cc3)n2n1)C1CC1 [Compound 1, cyclopropanecarboxylic acid {5-[4-(1,1-dioxo-thiomorpholin-4-ylmethyl)-phenyl]-[1,2,4]triazolo[1,5-a]pyridin-2-yl}-amide]
50 mg q.d., week 1, 12 weeks results
  DAS28(CRP) mean CFB (LOCF): −0.65
50 mg q.d., week 1, 24 weeks results
  DAS28(CRP) mean CFB (LOCF): −0.65
50 mg q.d., week 2, 12 weeks results
  DAS28(CRP) mean CFB (LOCF): −0.94
50 mg q.d., week 2, 24 weeks results
  DAS28(CRP) mean CFB (LOCF): −0.94
50 mg q.d., week 4, 12 weeks results
  DAS28(CRP) mean CFB (LOCF): −1.28
50 mg q.d., week 4, 24 weeks results
  DAS28(CRP) mean CFB (LOCF): −1.28
50 mg q.d., week 12, 12 weeks results
  DAS28(CRP) mean CFB (LOCF): −1.75
50 mg q.d., week 12, 24 weeks results
  DAS28(CRP) mean CFB (LOCF): −1.75
50 mg q.d., week 16, 24 weeks results
  DAS28(CRP) mean CFB (LOCF): −1.91
50 mg q.d., week 20, 24 weeks results
  DAS28(CRP) mean CFB (LOCF): −1.99
50 mg q.d., week 24, 24 weeks results
  DAS28(CRP) mean CFB (LOCF): −1.98
50 mg q.d., 12 weeks results
  % patients reaching low disease activity and/or remission at week 12 (LOCF): 24%
  % patients reaching low disease activity at week 12 (LOCF): 12%
  % patients reaching remission at week 12 (LOCF): 12%
50 mg q.d., 24 weeks results
  % patients reaching low disease activity and/or remission at week 24 (LOCF): 33%
  % patients reaching low disease activity at week 24 (LOCF): 12%
  % patients reaching remission at week 24 (LOCF): 21%
50 mg q.d., week 8, 12 weeks results
  DAS28(CRP) mean CFB (LOCF): −1.66
50 mg q.d., week 8, 24 weeks results
  DAS28(CRP) mean CFB (LOCF): −1.66
100 mg q.d., week 1, 12 weeks results
  DAS28(CRP) mean CFB (LOCF): −1.01
100 mg q.d., week 1, 24 weeks results
  DAS28(CRP) mean CFB (LOCF): −1.00
100 mg q.d., week 2, 12 weeks results
  DAS28(CRP) mean CFB (LOCF): −1.50
100 mg q.d., week 2, 24 weeks results
  DAS28(CRP) mean CFB (LOCF): −1.51
100 mg q.d., week 4, 12 weeks results
  DAS28(CRP) mean CFB (LOCF): −1.88
100 mg q.d., week 4, 24 weeks results
  DAS28(CRP) mean CFB (LOCF): −1.89
100 mg q.d., week 8, 24 weeks results
  DAS28(CRP) mean CFB (LOCF): −2.13
100 mg q.d., week 12, 12 weeks results
  DAS28(CRP) mean CFB (LOCF): −2.21
100 mg q.d., week 12, 24 weeks results
  DAS28(CRP) mean CFB (LOCF): −2.23
100 mg q.d., week 16, 24 weeks results
  DAS28(CRP) mean CFB (LOCF): −2.51
100 mg q.d., week 20, 24 weeks results
  DAS28(CRP) mean CFB (LOCF): −2.65
100 mg q.d., week 24, 24 weeks results
  DAS28(CRP) mean CFB (LOCF): −2.70
100 mg q.d., 12 weeks results
  % patients reaching low disease activity and/or remission at week 12 (LOCF): 34%
  % patients reaching low disease activity at week 12 (LOCF): 13%
  % patients reaching remission at week 12 (LOCF): 21%
100 mg q.d., 24 weeks results
  % patients reaching low disease activity and/or remission at week 24 (LOCF): 51%
  % patients reaching low disease activity at week 24 (LOCF): 14%
  % patients reaching remission at week 24 (LOCF): 36%
100 mg q.d., week 8, 12 weeks results
  DAS28(CRP) mean CFB (LOCF): −2.12
200 mg q.d., week 1, 12 weeks results
  DAS28(CRP) mean CFB (LOCF): −1.17
200 mg q.d., week 1, 24 weeks results
  DAS28(CRP) mean CFB (LOCF): −1.17
200 mg q.d., week 2, 12 weeks results
  DAS28(CRP) mean CFB (LOCF): −1.52
200 mg q.d., week 2, 24 weeks results
  DAS28(CRP) mean CFB (LOCF): −1.52
200 mg q.d., week 4, 12 weeks results
  DAS28(CRP) mean CFB (LOCF): −1.92
200 mg q.d., week 4, 24 weeks results
  DAS28(CRP) mean CFB (LOCF): −1.92
200 mg q.d., week 8, 24 weeks results
  DAS28(CRP) mean CFB (LOCF): −2.31
200 mg q.d., week 12, 12 weeks results
  DAS28(CRP) mean CFB (LOCF): −2.49
200 mg q.d., week 12, 24 weeks results
  DAS28(CRP) mean CFB (LOCF): −2.47
200 mg q.d., week 16, 24 weeks results
  DAS28(CRP) mean CFB (LOCF): −2.70
200 mg q.d., week 20, 24 weeks results
  DAS28(CRP) mean CFB (LOCF): −2.86
200 mg q.d., week 24, 24 weeks results
  DAS28(CRP) mean CFB (LOCF): −2.80
200 mg q.d., 12 weeks results
  % patients reaching low disease activity and/or remission at week 12 (LOCF): 37%
  % patients reaching low disease activity at week 12 (LOCF): 15%
  % patients reaching remission at week 12 (LOCF): 22%
200 mg q.d., 24 weeks results
  % patients reaching low disease activity and/or remission at week 24 (LOCF): 51%
  % patients reaching low disease activity at week 24 (LOCF): 26%
  % patients reaching remission at week 24 (LOCF): 26%
200 mg q.d., week 8, 12 weeks results
  DAS28(CRP) mean CFB (LOCF): −2.30

Reference: patent publication US20180200257A1, “METHODS FOR THE TREATMENT OF INFLAMMATORY DISORDERS” (Galapagos NV, priority 2015, published 2018)
